In patent US5968823A, “Glycine transporter-transfected avian cells and uses thereof” (Allelix Neuroscience Inc., priority 1998, dated 1999):
Where two headings read alike, the source gives them in different places.

Experiments:
[1] = molecular target: glycine site on the NMDA receptor; assay: [3H]MK-801 binding test operated to identify antagonists of the NMDA-glycine site; settings: rat cortex/hippocampus membranes; glutamate 10 μM, glycine 200 nM, 2.5 nM [3H]MK-801, 1 hour room temperature; FIG. 2A; read-out: concentration of antagonist resulting in about a 50% effect on [3H]MK-801 binding
Experimental: Sterner and Calligaro, Soc. Neurosci.
The membrane preparation included the following steps:
1. Sacrifice and decapitate four rats; remove cortices and hippocampi.
3. Centrifuge tissue at 1000×g, 10 minutes. Save supernatant.
4. […] Discard the supernatant.
5. […] Stir the suspension on ice for one hour.
6. […] Leave on ice for 20 minutes.
The final volume of the assay was 200 μl.

NMDA receptor = assay: Calcium flux (45Ca++ accumulation) in primary neuronal cortical cell cultures; format: cell-based, rat; settings: L-689,560 50 μM with NMDA 500 μM; 10 minutes room temperature; FIG. 3
Experimental: A functional ion-flux assay used to measure the effect of compounds identified by the present invention relates to the ability to enhance or inhibit calcium flux through the NMDA receptor. This test is performed on suitable cell cultures that have membrane-bound NMDA receptors and glycine transporters. Such cells include neuronal cells generally, including those of the central nervous system, including brain, and cell lines derived therefrom, and any other cell that has been induced or transfected to express NMDA receptors. Calcium used in such a test is commonly the ^45 Ca isotope, although other calcium measuring techniques can be used as well, such as calcium-associated fluorescence and the like. However the calcium is monitored, calcium flux is enhanced or inhibited as a result of the discrete addition of a compound of the present invention. An advantage of this system is that it allows one to monitor the net effect on NMDA receptor function of a compound that interacts with the glycine site on the NMDA receptor and the glycine transporter.
This example illustrates a protocol for measuring calcium flux in primary neuronal cells, which is an indication of NMDA receptor activation. […]
The tissue was chopped with a scalpel and then triturated with a glass pipet that had been fire polished. […] Cells were counted in a suitable counting chamber. […]

GlyT-1c = molecular target: T1, GlyT-1c (Homo sapiens, UniProt P48067); assay: Inhibition of [3H]glycine uptake in QT-6 cells transiently transfected with GlyT-1c; format: cell-based; settings: for selectivity GlyT-1c relative to GlyT-2: comparison of pIC50 at GlyT-1c and GlyT-2 in transfected QT-6 cells
T1 construct: expressed in transfected cells; host or cells: QT-6 quail fibroblast cells (ATCC CRL-1708), transient transfection
T1 sequence (P48067 1-706): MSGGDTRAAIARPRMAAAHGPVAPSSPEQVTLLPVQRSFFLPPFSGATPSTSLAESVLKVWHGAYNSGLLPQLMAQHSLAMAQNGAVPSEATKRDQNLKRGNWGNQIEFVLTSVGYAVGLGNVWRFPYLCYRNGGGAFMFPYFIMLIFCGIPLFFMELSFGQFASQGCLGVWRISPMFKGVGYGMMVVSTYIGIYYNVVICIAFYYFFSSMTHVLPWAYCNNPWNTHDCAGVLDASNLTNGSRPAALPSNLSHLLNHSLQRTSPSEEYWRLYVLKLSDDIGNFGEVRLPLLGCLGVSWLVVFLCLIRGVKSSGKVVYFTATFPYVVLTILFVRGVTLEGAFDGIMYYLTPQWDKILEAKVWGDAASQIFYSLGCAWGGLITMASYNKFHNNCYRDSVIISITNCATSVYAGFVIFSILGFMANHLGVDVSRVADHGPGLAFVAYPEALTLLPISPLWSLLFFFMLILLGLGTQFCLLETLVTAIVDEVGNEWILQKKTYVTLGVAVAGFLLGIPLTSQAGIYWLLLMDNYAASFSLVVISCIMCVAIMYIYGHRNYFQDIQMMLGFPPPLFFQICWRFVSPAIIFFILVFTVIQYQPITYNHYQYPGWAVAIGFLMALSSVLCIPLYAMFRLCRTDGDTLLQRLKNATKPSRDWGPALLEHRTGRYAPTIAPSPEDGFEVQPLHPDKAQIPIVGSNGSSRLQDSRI
Experimental: (§1) This example sets forth methods and materials used for growing and transfecting QT-6 cells.
The human GlyT-1c (hGlyT-1c) clone used contains the sequence of hGlyT-1c [SEQ ID NO:3] from nucleotide position 213 to 2336 cloned into the pRc/CMV vector (Invitrogen) as a Hind III-Xba I fragment as described in Kim et al., supra. The Hind III-Xba fragment of hGlyT-1c from this clone was then subcloned into the pRc/RSV vector. Transfection experiments were performed with GlyT-1c in both the pRc/RSV and pRc/CMV expression vectors.
(§2) The following four day procedure for the tranfections was used:
(§3) On day 1, QT-6 cells were plated at a density of 1×10^6 cells in 10 ml of complete QT-6 medium in 100 mm dishes.
(§4) On day 2, the medium was aspirated and the cells were washed with 10 ml of PBS followed by 10 ml of TBS. The TBS was aspirated, then 1 ml of the DEAE/DNA mix was added to the plate. The plate was swirled in the hood every 5 minutes. After 30 minutes, 8 ml of 80 μM chloroquine in QT-6 medium was added and the culture was incubated for 2.5 hours at 37° C. and 5% CO2. The medium was then aspirated and the cells were washed two times with complete QT-6 medium, then […] complete QT-6 medium was added and the cells were returned to the incubator.
(§5) On day 3, the cells were removed with trypsin/EDTA as described above, and plated into the wells of 96-well assay plates at approximately 2×10^5 cells/well.
(§6) On day 4, glycine transport was assayed as described in Example 2.
(§7) This example illustrates a method for the measurement of glycine uptake by transfected cultured cells.
(§8) Transient GlyT-transfected cells or control ("mock") cells grown in accordance with Example 1 were washed three times with HEPES buffered saline (HBS). The mock cells were treated precisely as the GlyT-transfected cells except that the transfection procedure omitted any cDNA. The cells were incubated 10 minutes at 37° C., after which a solution was added containing 50 nM [^3 H] glycine (17.5 Ci/mmol) and either (a) no potential competitor, (b) 10 mM nonradioactive glycine or (c) a concentration of a candidate drug. […] The cells were then incubated another 20 minutes at 37° C., after which the cells were aspirated and washed three times with ice-cold HBS. The cells were harvested, scintillant was added to the cells, the cells were shaken for 30 minutes, and the radioactivity in the cells was counted using a scintillation counter. Data were compared between the cells contacted or not contacted by a candidate agent, and between cells having GlyT-1 activity versus cells having GlyT-2 activity, depending on the assay being conducted.

GlyT-2 = molecular target: T2, GlyT-2 (Rattus norvegicus, UniProt P58295); assay: Inhibition of [3H]glycine uptake in QT-6 cells transiently transfected with GlyT-2; format: cell-based
T2 construct: expressed in transfected cells; host or cells: QT-6 quail fibroblast cells (ATCC CRL-1708), transient transfection
T2 sequence (P58295 1-799): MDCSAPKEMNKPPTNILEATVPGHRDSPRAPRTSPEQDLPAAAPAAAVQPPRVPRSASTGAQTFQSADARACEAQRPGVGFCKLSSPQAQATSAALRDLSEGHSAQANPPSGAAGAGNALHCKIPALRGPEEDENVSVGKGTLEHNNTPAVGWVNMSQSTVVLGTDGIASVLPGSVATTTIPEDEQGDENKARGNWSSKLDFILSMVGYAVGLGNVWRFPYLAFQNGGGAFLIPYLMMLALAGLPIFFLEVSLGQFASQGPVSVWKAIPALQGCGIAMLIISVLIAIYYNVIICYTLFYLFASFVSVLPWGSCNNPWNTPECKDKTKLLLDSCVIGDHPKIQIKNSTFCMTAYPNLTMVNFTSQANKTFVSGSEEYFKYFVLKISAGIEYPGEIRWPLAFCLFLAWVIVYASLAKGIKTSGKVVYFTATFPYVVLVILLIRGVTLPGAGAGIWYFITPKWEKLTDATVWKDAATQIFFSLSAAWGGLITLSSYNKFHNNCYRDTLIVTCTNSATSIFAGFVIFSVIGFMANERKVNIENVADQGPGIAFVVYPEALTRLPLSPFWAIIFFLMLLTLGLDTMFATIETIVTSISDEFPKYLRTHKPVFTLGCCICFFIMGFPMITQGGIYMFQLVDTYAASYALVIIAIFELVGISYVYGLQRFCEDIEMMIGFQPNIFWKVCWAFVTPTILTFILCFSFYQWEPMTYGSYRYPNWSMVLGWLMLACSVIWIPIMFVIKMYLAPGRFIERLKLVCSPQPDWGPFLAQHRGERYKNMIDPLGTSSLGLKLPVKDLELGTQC
Experimental: as §1, §2, §3, §4, §5, §6, §7, §8

[2] = molecular target: glycine site on the NMDA receptor; settings: read-out: concentration of agonist resulting in about a 50% effect on [3H]MK-801 binding; rat cortex/hippocampus membranes; glutamate 10 μM, 2.5 nM [3H]MK-801, 1 hour room temperature; FIG. 2B
Experimental: In particular, compounds having agonist activity in this assay enhance MK-801 binding; conversely, compounds having antagonist activity inhibit MK-801 binding.
Preparation of membranes for the binding test required application of a series of standard methods. Unless otherwise specified, tissues and homogenates were kept on ice and centrifugations were conducted at 4° C. Homogenizations were conducted with an effort to minimize resulting rise in tissue/homogenate temperature. The membrane preparation included the following steps:
Homogenize tissue in twenty volumes of 0.32 M sucrose/5 mM Tris-Acetate (pH 7.4) with 20 strokes of a glass/teflon homogenizer.
Centrifuge tissue at 1000×g, 10 minutes. Save supernatant. Resuspend pellet in small volume of buffer and homogenize again. Centrifuge the homogenized pellet and combine the supernatant with the previous supernatant.
Centrifuge the combined supernatants at 40,000×g, for 30 minutes. Discard the supernatant. […]
The assay was started by the addition of 2.5 nM [^3 H]MK-801 (23.9 Ci/mmol), which binds to the ion channel associated with NMDA receptors. […] Bound radioactivity was separated from free by filtration, using a TOMTEC harvester. Antagonist activity was indicated by decreasing radioactivity associated with the NMDA receptor with increasing concentration of the tested ligand.

[3] = QT-6 cells transfected with GlyT-1c, 50 nM [3H]glycine, 20 min at 37° C, read-out: Effect Via GlyT-1c, pIC50 (converted)
[4] = QT-6 cells transfected with GlyT-2, 50 nM [3H]glycine, 20 min at 37° C, read-out: Effect Via GlyT-2, pIC50 (converted)

Row | Structure (SMILES) | IC50 (GlyT-1c; [3]) [µM] | selectivity GlyT-1c relative to GlyT-2 (GlyT-1c) | IC50 (GlyT-1c) [µM] | IC50 (GlyT-2) [µM] | further results
1 | O=C(Nc1ccccc1)N[C@@H]1C[C@@H](C(=O)O)Nc2cc(Cl)cc(Cl)c21 (relative stereo) [L-689,560] |  |  |  |  | IC50 [1]: ~0.5 µM; blockade of NMDA-caused accumulation of 45Ca++ (NMDA receptor): blocked
2 | Clc1ccc(C(c2ccc(Cl)cc2)n2cc[n+](CC(OCc3ccc(Cl)cc3Cl)c3ccc(Cl)cc3Cl)c2)cc1 (stereo not shown) [ZA] | 0.912 | selective for GlyT-1c relative to GlyT-2 |  |  | IC50 (GlyT-2; [4]): 3.09 µM
3 | CC(C)(C)c1ccc(C(O)CCCN2CCC(C(O)(c3ccccc3)c3ccccc3)CC2)cc1 (stereo not shown) [ZB] |  | selective for GlyT-1c relative to GlyT-2 | 4.27 | 17 | 
4 | CC(Cc1ccccc1)NCCC(c1ccccc1)c1ccccc1 (stereo not shown) [ZC] |  | selective for GlyT-1c relative to GlyT-2 | 6.46 | 14.1 | 
5 | CSc1ccc2c(c1)N(CCC1CCCCN1C)c1ccccc1S2 (stereo not shown) [ZD] | 9.55 |  |  |  | 
6 | CC(NCCC(c1ccccc1)c1ccccc1)c1ccccc1 (stereo not shown) [ZE] |  | selective for GlyT-1c relative to GlyT-2 | 12.9 | 20.9 | 
7 | CN1CCC(=C2c3ccccc3CCc3ccccc32)CC1 [ZF] | 21.4 | reverse selectivity |  |  | IC50 (GlyT-2; [4]): 14.5 µM
8 | NCC(=O)O [glycine] |  |  |  |  | EC50 [2]: ~1 µM
